{
  "source": "patent EP0421419A2",
  "about": "“Tocotrienols in the treatment of hypercholesterolemia, hyperlipidemia and thromboembolic disorders” (Bristol-Myers Squibb Company, priority 1989, dated 1991)",
  "system": "Cholesterol Synthesis in HepG2 Cells",
  "test": "HepG2 cell culture model, 14C-acetate incorporation assay",
  "format": "cell-based, human",
  "conditions": "Homo sapiens, HepG2; 10 µM, about 4 hours; read-out: % Inhibition 14C-Ac",
  "experimental": "HepG2 cells obtained from the American Type Culture Collection were routinely passaged in RPMI-1640 plus 10% fetal bovine serum (FBS) and were subcultured into 35 mm diameter wells for experiments. […] The LDS medium supplement was prepared according to Cham et al., J. Lipid Res., 17: 176-181, (1976). After about 16 hours in LDS containing media, test compounds were added in dimetthylsulfoxide vehicle (0.5% v/v final conc.) for the period of time indicated in the data (generally 4 hours). Cholesterol synthesis was then directly determined by the incorporation of 2-14C-acetate (1.8-3.0 mCi/mmol) into digitonin-precipitable sterols essentially as described for the rat hepatocyte methol above. Greater than 97% of the radiolabelled sterol isolated by this procedure was cholesterol as judged by HPLC. Percent inhibition was calculated from the average of duplicates or triplicates vs. controls receiving vehicle.\nThe human hepatoma HepG2 cell culture model was employed to compare the intrinsic activities of the tocotrienols. HepG2 cells were incubated with the indicated compounds for about 4 hours at 10 µM. Cholestrol synthesis was assayed by 14C-acetate incorporation and HMG-CoA reductase suppression was assayed in the isolated microsomal fraction. Cholesterol synthesis inhibition was assayed by 14C-acetate incorporation after preincubation of HepG2 cells with the compounds for about 2 hours or about 4 hours (Example IV). […] As the data in Figure 1 indicate, gamma-tocotrienol has an even greater relative potency compared to alpha-tocotrienol in the HepG2 cell model than in rat hepatocytes. The IC50s from these studies are given in Table 3, in which it can be seen that the intrinsic potency of gamma-tocotrienol is over 30-fold greater than that of alpha-tocotrienol.",
  "data": [
    {"compound": "CC(C)=CCC/C(C)=C/CC/C(C)=C/CC[C@]1(C)CCc2cc(O)c(C)c(C)c2O1", "note": "[d-γ-tocotrienol]", "values": [
      {"measurement": "inhibition at 10 µM", "value": 78, "unit": "%"}
    ]},
    {"compound": "CC(C)=CCC/C(C)=C/CC/C(C)=C/CC[C@]1(C)CCc2cc(O)cc(C)c2O1", "note": "[d-δ-tocotrienol]", "values": [
      {"measurement": "inhibition at 10 µM", "value": 79, "unit": "%"}
    ]}
  ]
}
